“And” between values parts separate entries of the source, which are not always exact repeats. Equal values may be shown once.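 These data come from cells grown in 96-well plates and exposed to compound for 48 hours at five concentrations. The concentration for 50% growth inhibition is given as GI50.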 The source made the active and inactive calls. No stated cut-off is given here; in the data, active = GI50 up to about 1.1 µM and inactive = higher.
Experiments:
Test in all cases: inhibition of tumour cell growth, NCI panel, 48 h
SNB-19 = tested on: SNB-19
SK-MEL-28 = tested on: SK-MEL-28
RPMI-8226 = tested on: RPMI-8226
HCT-15 = tested on: HCT-15
M14 = tested on: M14
SF-539 = tested on: SF-539
DU-145 = tested on: DU-145
UACC-257 = tested on: UACC-257
SR = tested on: SR
HOP-92 = tested on: HOP-92
NCI/ADR-RES = tested on: NCI/ADR-RES
KM12 = tested on: KM12
NCI-H226 = tested on: NCI-H226
MDA-MB-231 = tested on: MDA-MB-231
LOX IMVI = tested on: LOX IMVI
HOP-62 = tested on: HOP-62
SF-268 = tested on: SF-268
MCF7 = tested on: MCF7
SN12C = tested on: SN12C
MOLT-4 = tested on: MOLT-4
K562 = tested on: K562
A498 = tested on: A498
PC-3 = tested on: PC-3
EKVX = tested on: EKVX
HT-29 = tested on: HT-29
UO-31 = tested on: UO-31
UACC-62 = tested on: UACC-62
MDA-MB-435 = tested on: MDA-MB-435
SW-620 = tested on: SW-620
BT-549 = tested on: BT-549
HL-60 = tested on: HL-60
ACHN = tested on: ACHN
SK-OV-3 = tested on: SK-OV-3
HCC 2998 = tested on: HCC 2998
A549 = tested on: A549
TK-10 = tested on: TK-10
NCI-H460 = tested on: NCI-H460
OVCAR-3 = tested on: OVCAR-3
OVCAR-5 = tested on: OVCAR-5
SNB-75 = tested on: SNB-75
IGROV-1 = tested on: IGROV-1
786-0 = tested on: 786-0
NCI-H522 = tested on: NCI-H522
HCT-116 = tested on: HCT-116
T47D = tested on: T47D
SF-295 = tested on: SF-295
U-251 = tested on: U-251
Hs-578T = tested on: Hs-578T
SK-MEL-2 = tested on: SK-MEL-2
OVCAR-8 = tested on: OVCAR-8
OVCAR-4 = tested on: OVCAR-4
SK-MEL-5 = tested on: SK-MEL-5
NCI-H23 = tested on: NCI-H23
MDA-N = tested on: MDA-N
CAKI-1 = tested on: CAKI-1
COLO 205 = tested on: COLO 205
Malme-3M = tested on: Malme-3M

Q: Which results are given for `CCCC(C(=O)Nc1cccc2nc[nH]c12)C(=O)OCC` (stereo not drawn)?
A: GI50 (SNB-19): > 100 µM (inactive); GI50 (SK-MEL-28): > 100 µM (inactive); GI50 (RPMI-8226): > 100 µM (inactive); GI50 (HCT-15): > 100 µM; GI50 (M14): > 100 µM (inactive); GI50 (SF-539): > 100 µM (inactive); GI50 (DU-145): > 100 µM (inactive); GI50 (UACC-257): > 100 µM (inactive); GI50 (SR): > 100 µM (inactive); GI50 (HOP-92): > 100 µM (inactive); GI50 (NCI/ADR-RES): 79.1 µM (inactive); GI50 (KM12): > 100 µM (inactive); GI50 (NCI-H226): > 100 µM (inactive); GI50 (MDA-MB-231): > 100 µM (inactive); GI50 (LOX IMVI): > 100 µM (inactive); GI50 (HOP-62): > 100 µM (inactive); GI50 (SF-268): > 100 µM (inactive); GI50 (MCF7): > 100 µM (inactive); GI50 (SN12C): > 100 µM (inactive); GI50 (MOLT-4): > 100 µM (inactive); GI50 (K562): > 100 µM (inactive); GI50 (A498): > 100 µM (inactive); GI50 (PC-3): > 100 µM (inactive); GI50 (EKVX): > 100 µM (inactive); GI50 (HT-29): > 100 µM (inactive); GI50 (UO-31): > 100 µM (inactive); GI50 (UACC-62): > 100 µM (inactive); GI50 (MDA-MB-435): > 100 µM (inactive); GI50 (SW-620): > 100 µM (inactive); GI50 (BT-549): > 100 µM (inactive); GI50 (HL-60): > 100 µM (inactive); GI50 (ACHN): > 100 µM (inactive); GI50 (SK-OV-3): > 100 µM (inactive); GI50 (HCC 2998): > 100 µM (inactive); GI50 (A549): > 100 µM (inactive); GI50 (TK-10): > 100 µM (inactive); GI50 (NCI-H460): > 100 µM (inactive); GI50 (OVCAR-3): 67.8 µM (inactive); GI50 (OVCAR-5): > 100 µM (inactive); GI50 (SNB-75): > 100 µM (inactive); GI50 (IGROV-1): > 100 µM (inactive); GI50 (786-0): > 100 µM (inactive); GI50 (NCI-H522): 44.1 µM (inactive); GI50 (HCT-116): > 100 µM (inactive); GI50 (T47D): > 100 µM (inactive); GI50 (SF-295): > 100 µM (inactive); GI50 (U-251): > 100 µM (inactive); GI50 (Hs-578T): > 100 µM (inactive); GI50 (SK-MEL-2): > 100 µM (inactive); GI50 (OVCAR-8): > 100 µM (inactive); GI50 (OVCAR-4): > 100 µM (inactive)

Q: How did the GI50 (SNB-19) turn out when `COc1ccc(/C=C/C(=O)OC2CC34CCNC35CC(OC5(OC)C2OC)c2ccc(OC)c(O)c24)cc1O` (stereo not drawn) was run?
A: > 100 µM (inactive)

Q: What about the GI50 (SK-MEL-28) of the same molecule?
A: 79.4 µM (inactive)

Q: What about the GI50 (HCT-15) of the same molecule?
A: 58.5 µM

Q: And the GI50 (M14)?
A: > 100 µM (inactive) and 88.7 µM (inactive)

Q: And the GI50 (SF-539)?
A: > 100 µM (inactive) and 87.1 µM (inactive)

Q: What about the GI50 (DU-145) of the same molecule?
A: > 100 µM (inactive)

Q: What about the GI50 (UACC-257) of the same molecule?
A: > 100 µM (inactive)

Q: And the GI50 (HOP-92)?
A: 76 µM (inactive)

Q: And the GI50 (NCI/ADR-RES)?
A: 63 µM (inactive)

Q: And the GI50 (NCI-H226)?
A: > 100 µM (inactive)

Q: And the GI50 (HOP-62)?
A: > 100 µM (inactive) and 61.4 µM (inactive)

Q: And the GI50 (SK-MEL-5)?
A: 57.3 µM (inactive)

Q: What about the GI50 (SF-268) of the same molecule?
A: > 100 µM (inactive)

Q: And the GI50 (MCF7)?
A: > 100 µM (inactive) and 70 µM (inactive)

Q: What about the GI50 (SN12C) of the same molecule?
A: 55.1 µM (inactive)

Q: And the GI50 (A498)?
A: > 100 µM (inactive)

Q: What about the GI50 (EKVX) of the same molecule?
A: > 100 µM (inactive)

Q: And the GI50 (NCI-H23)?
A: > 100 µM (inactive) and 88.1 µM (inactive)

Q: And the GI50 (UO-31)?
A: > 100 µM (inactive)

Q: What about the GI50 (UACC-62) of the same molecule?
A: > 100 µM (inactive)

Q: What about the GI50 (MDA-MB-435) of the same molecule?
A: > 100 µM (inactive)

Q: What about the GI50 (SW-620) of the same molecule?
A: 58.1 µM (inactive)

Q: And the GI50 (BT-549)?
A: > 100 µM (inactive)

Q: And the GI50 (HL-60)?
A: 24.1 µM (inactive)

Q: And the GI50 (ACHN)?
A: > 100 µM (inactive) and 80.7 µM (inactive)

Q: And the GI50 (SK-OV-3)?
A: > 100 µM (inactive)

Q: What about the GI50 (A549) of the same molecule?
A: > 100 µM (inactive)

Q: And the GI50 (TK-10)?
A: > 100 µM (inactive)

Q: And the GI50 (NCI-H460)?
A: > 100 µM (inactive) and 57.7 µM (inactive)

Q: What about the GI50 (OVCAR-5) of the same molecule?
A: > 100 µM (inactive)

Q: And the GI50 (MDA-N)?
A: > 100 µM (inactive)

Q: And the GI50 (IGROV-1)?
A: > 100 µM (inactive) and 86.3 µM (inactive)

Q: What about the GI50 (CAKI-1) of the same molecule?
A: > 100 µM (inactive)

Q: And the GI50 (T47D)?
A: > 100 µM (inactive)

Q: What about the GI50 (SF-295) of the same molecule?
A: > 100 µM (inactive) and 62.4 µM (inactive)

Q: What about the GI50 (Hs-578T) of the same molecule?
A: > 100 µM (inactive) and 52.2 µM (inactive)

Q: And the GI50 (SK-MEL-2)?
A: > 100 µM (inactive)

Q: And the GI50 (OVCAR-8)?
A: > 100 µM (inactive)

Q: And the GI50 (OVCAR-4)?
A: > 100 µM (inactive) and 50.6 µM (inactive)

Q: Which GI50 (SNB-19) does the source give for `COc1ccc(-c2c3c(n(C4OC(COC(C)=O)C(OC(C)=O)C(OC(C)=O)C4OC(C)=O)c(=S)c2C#N)CC(C)(C)CC3=O)cc1` (stereo not drawn) here?
A: 97.3 µM (inactive)

Q: What about the GI50 (RPMI-8226) of the same molecule?
A: 32.6 µM (inactive) and 26.5 µM (inactive)

Q: And the GI50 (SF-539)?
A: 35.2 µM (inactive) and 22.8 µM (inactive)

Q: What about the GI50 (SR) of the same molecule?
A: 24.9 µM (inactive) and 37.3 µM (inactive)

Q: What about the GI50 (KM12) of the same molecule?
A: 74.8 µM (inactive)

Q: And the GI50 (NCI-H226)?
A: 55.5 µM (inactive) and 44.8 µM (inactive)

Q: What about the GI50 (MDA-MB-231) of the same molecule?
A: 37.9 µM (inactive) and 35.6 µM (inactive)

Q: What about the GI50 (LOX IMVI) of the same molecule?
A: 27.5 µM (inactive) and 29.3 µM (inactive)

Q: And the GI50 (HOP-62)?
A: > 100 µM (inactive)

Q: What about the GI50 (MCF7) of the same molecule?
A: 57.3 µM (inactive) and 28.8 µM (inactive)

Q: What about the GI50 (SN12C) of the same molecule?
A: > 100 µM (inactive) and 55.3 µM (inactive)

Q: What about the GI50 (MOLT-4) of the same molecule?
A: 20.7 µM (inactive) and 27.8 µM (inactive)

Q: And the GI50 (PC-3)?
A: 59.6 µM (inactive) and 34.4 µM (inactive)

Q: And the GI50 (EKVX)?
A: 26.6 µM (inactive)

Q: And the GI50 (HT-29)?
A: 33.1 µM (inactive) and 58.2 µM (inactive)

Q: And the GI50 (UO-31)?
A: > 100 µM (inactive) and 55.3 µM (inactive)

Q: What about the GI50 (UACC-62) of the same molecule?
A: 30.3 µM (inactive) and 33 µM (inactive)

Q: And the GI50 (SW-620)?
A: 37.1 µM (inactive)

Q: What about the GI50 (BT-549) of the same molecule?
A: 62.1 µM (inactive) and 32.1 µM (inactive)

Q: What about the GI50 (COLO 205) of the same molecule?
A: > 100 µM (inactive) and 50.4 µM (inactive)

Q: And the GI50 (SK-OV-3)?
A: 96.2 µM (inactive)

Q: What about the GI50 (HCC 2998) of the same molecule?
A: 47.6 µM (inactive) and 61.1 µM (inactive)

Q: What about the GI50 (A549) of the same molecule?
A: 65.5 µM (inactive)

Q: What about the GI50 (NCI-H460) of the same molecule?
A: > 100 µM (inactive) and 61.4 µM (inactive)

Q: And the GI50 (OVCAR-5)?
A: 61 µM (inactive)

Q: What about the GI50 (MDA-N) of the same molecule?
A: 33 µM (inactive) and 65.8 µM (inactive)

Q: And the GI50 (IGROV-1)?
A: > 100 µM (inactive) and 74.5 µM (inactive)

Q: And the GI50 (Malme-3M)?
A: > 100 µM (inactive) and 56.2 µM (inactive)

Q: What about the GI50 (NCI-H522) of the same molecule?
A: 43.5 µM (inactive) and 22.6 µM (inactive)

Q: What about the GI50 (CAKI-1) of the same molecule?
A: 59.2 µM (inactive)

Q: What about the GI50 (T47D) of the same molecule?
A: 40.9 µM (inactive) and 64.1 µM (inactive)

Q: And the GI50 (SF-295)?
A: 78 µM (inactive)

Q: And the GI50 (Hs-578T)?
A: 40.4 µM (inactive) and 36.2 µM (inactive)
